Data taken from patent US9079913B2, “Spiro-oxindole MDM2 antagonists” (The Regents of the University of Michigan, priority 2009, dated 2015).
Where two headings read alike, the source gives them in different places.

Experiments:
[1] = system: Isogenic HCT-116 colon cancer cell lines; assay: cells; format: cell-based; conditions: Homo sapiens, cell growth;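 also: cells grown in 96-well plates in McCoy's 5A medium with 10% FBS, exposed to compound for 4 days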
Description: Cells were seeded in 96-well flat bottom cell culture plates at a density of 2−3×10^3 cells/well with compounds and incubated for 4 days.

[2] = system: cancer cell lines with wild-type p53 / mutated or deleted p53 (ATCC); assay: Cell growth assay (WST-8), other cancer cell lines; format: cell-based; conditions: Homo sapiens
[3] = In vitro microsomal stability, rat; format: in vitro ADME
[4] = target: recombinant human His-tagged MDM2 protein (residues 1-118) (Homo sapiens (Human), UniProt Q00987); assay: Fluorescence-polarization MDM2 binding assay; conditions: Table 19A; FP binding assay; read-out: MDM2 IC50;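 also: fluorescence polarization read after three hours of incubation in potassium phosphate buffer containing bovine gamma globulin and Triton X-100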
[5] = HCT-116, read-out: HCT-116 (p53-/-) IC50, Table 19A, HCT-116 p53-/-
[6] = HCT-116, read-out: HCT-116 (p53 wild-type) IC50, Table 19A, HCT-116 p53 wild-type
[7] = LNCaP, Table 19A, LNCAP cells, p53 wild-type, cell growth, read-out: LNCAP (p53 wild-type) IC50
[8] = PC-3, Table 19A, PC-3 cells, deleted p53, cell growth, read-out: PC-3 (deleted p53) IC50
[9] = SJSA-1, Table 19A, SJSA-1 cells, p53 wild-type, cell growth, read-out: SJSA-1 (p53 wild-type) IC50

Sequence of recombinant human His-tagged MDM2 protein (residues 1-118) (Q00987 1-118): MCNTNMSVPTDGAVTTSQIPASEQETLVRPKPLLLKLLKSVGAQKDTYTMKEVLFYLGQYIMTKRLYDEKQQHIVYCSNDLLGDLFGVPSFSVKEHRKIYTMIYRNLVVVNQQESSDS

SMILES	IC50 [1, 5]	IC50 [1, 6]	IC50 [2, 7]	IC50 [2, 8]	IC50 [2, 9]	% of compound remaining when incubated in rat liver microsomes at indicated time (min) ([3]; 0 min)	% of compound remaining when incubated in rat liver microsomes at indicated time (min) ([3]; 4 min)	% of compound remaining when incubated in rat liver microsomes at indicated time (min) ([3]; 6 min)	% of compound remaining when incubated in rat liver microsomes at indicated time (min) ([3]; 10 min)	% of compound remaining when incubated in rat liver microsomes at indicated time (min) ([3]; 15 min)	% of compound remaining when incubated in rat liver microsomes at indicated time (min) ([3]; 30 min)	IC50 [4]	% of compound remaining when incubated in rat liver microsomes ([3]; Table 17, 0 min)	% of compound remaining when incubated in rat liver microsomes ([3]; Table 17, 4 min)	% of compound remaining when incubated in rat liver microsomes ([3]; Table 17, 6 min)	% of compound remaining when incubated in rat liver microsomes ([3]; Table 17, 10 min)	% of compound remaining when incubated in rat liver microsomes ([3]; Table 17, 15 min)	% of compound remaining when incubated in rat liver microsomes ([3]; Table 17, 30 min)	microsomal stability (in words) ([3]; rat liver microsomes)
CC(C)(C)C[C@H]1N[C@@H](C(=O)NCCCN2CCCC2)[C@H](c2cccc(Cl)c2)[C@@]12C(=O)Nc1cc(Cl)c(F)cc12 [MI-519-38]	5300 ± 1600 nM	1400 ± 600 nM	1000 ± 300 nM	3100 ± 400 nM	2100 ± 100 nM	100%	91.5%	85.4%	82.4%	80.8%	73.2%	< 1000 nM	–	–	–	–	–	–	–
CNC(=O)[C@@H]1N[C@H](CC(C)(C)C)[C@]2(C(=O)Nc3cc(Cl)c(F)cc32)[C@H]1c1cccc(Cl)c1 [MI-519-40]	18500 ± 5500 nM	1000 ± 100 nM	1000 ± 100 nM	14600 ± 2700 nM	1300 ± 300 nM	–	–	–	–	–	–	< 1000 nM	100%	84.2%	70.1%	59.6%	58.7%	57.6%	improved microsomal stability over MI-219
CC(C)(C)C[C@H]1N[C@@H](C(N)=O)[C@H](c2cccc(Cl)c2)[C@@]12C(=O)Nc1cc(Cl)c(F)cc12 [MI-519-41]	17900 ± 2200 nM	1000 ± 300 nM	1200 nM	14900 ± 1100 nM	1300 ± 400 nM	–	–	–	–	–	–	< 1000 nM	100%	84.2%	80.4%	66.1%	55.4%	42.9%	–
CC(C)(C)C[C@H]1N[C@@H](C(=O)NCCCN2CCCCC2)[C@H](c2cccc(Cl)c2F)[C@@]12C(=O)Nc1cc(Cl)ccc12 [MI-519-44]	2800 ± 700 nM	800 nM	1300 ± 200 nM	2600 ± 100 nM	900 ± 100 nM	–	–	–	–	–	–	< 10000 nM	100%	85.6%	74.7%	66.4%	61.2%	42.5%	–
CC(C)N1CCN(CCCNC(=O)[C@@H]2N[C@H](CC(C)(C)C)[C@]3(C(=O)Nc4cc(Cl)ccc43)[C@H]2c2cccc(Cl)c2F)CC1 [MI-519-45]	6900 ± 1900 nM	900 ± 300 nM	1000 ± 200 nM	5100 ± 900 nM	800 ± 200 nM	–	–	–	–	–	–	< 10000 nM	100%	81.1%	59.6%	50.7%	44.3%	38.5%	–
CN1CCN(CCCNC(=O)[C@@H]2N[C@H](CC(C)(C)C)[C@]3(C(=O)Nc4cc(Cl)ccc43)[C@H]2c2cccc(Cl)c2F)CC1 [MI-519-46]	4300 ± 400 nM	400 ± 100 nM	500 ± 300 nM	3700 ± 400 nM	500 ± 300 nM	–	–	–	–	–	–	< 1000 nM	100%	83.8%	70.9%	53.9%	53.4%	38.3%	–
CC(C)(C)C[C@H]1N[C@@H](C(=O)NCCCN2CCN(C3CC3)CC2)[C@H](c2cccc(Cl)c2F)[C@@]12C(=O)Nc1cc(Cl)ccc12 [MI-519-47]	7800 ± 900 nM	1100 ± 200 nM	1100 ± 300 nM	5700 ± 600 nM	1100 nM	–	–	–	–	–	–	< 10000 nM	100%	80.1%	61.1%	45.3%	38.1%	34.3%	–
CC(C)(C)C[C@H]1N[C@@H](C(=O)NCCN2CCNCC2)[C@H](c2cccc(Cl)c2)[C@@]12C(=O)Nc1cc(Cl)c(F)cc12 [MI-748]	7600 ± 1000 nM	900 ± 700 nM	800 nM	4100 ± 100 nM	–	–	–	–	–	–	–	< 1000 nM	100%	79.1%	69.7%	61.5%	49.9%	43.7%	–
CN1CCN(CCNC(=O)[C@@H]2N[C@H](CC(C)(C)C)[C@]3(C(=O)Nc4cc(Cl)c(F)cc43)[C@H]2c2cccc(Cl)c2)CC1 [MI-749]	7800 ± 1300 nM	1200 ± 400 nM	1000 ± 100 nM	5000 ± 500 nM	–	–	–	–	–	–	–	< 1000 nM	100%	82.9%	58.4%	54.2%	42.7%	23%	–
CN1CCN(CCCNC(=O)[C@@H]2N[C@H](CC(C)(C)C)[C@]3(C(=O)Nc4cc(Cl)c(F)cc43)[C@H]2c2cccc(Cl)c2)CC1 [MI-751]	6200 ± 1200 nM	1000 ± 200 nM	700 ± 200 nM	3900 ± 900 nM	–	–	–	–	–	–	–	< 1000 nM	100%	83.1%	62.9%	50.1%	41.6%	31.1%	–
CC(C)(C)C[C@H]1N[C@@H](C(=O)NCCCN2CCCC2)[C@H](c2cccc(Cl)c2F)[C@@]12C(=O)Nc1cc(Cl)c(F)cc12 [MI-764]	3800 ± 700 nM	500 ± 200 nM	1000 ± 400 nM	2400 ± 400 nM	1200 ± 300 nM	–	–	–	–	–	–	< 1000 nM	100%	87.8%	76.5%	66.5%	63.9%	55.8%	–
CC(C)NC(=O)N1CC(NC(=O)[C@@H]2N[C@H](CC(C)(C)C)[C@]3(C(=O)Nc4cc(Cl)ccc43)[C@H]2c2cccc(Cl)c2F)C1 [MI-911]	> 10000 nM	< 5000 nM	< 5000 nM	> 10000 nM	< 5000 nM	–	–	–	–	–	–	< 3000 nM	–	–	–	–	–	–	–
CC(C)(C)C[C@H]1N[C@@H](C(=O)NC2CN(CCO)C2)[C@H](c2cccc(Cl)c2F)[C@@]12C(=O)Nc1cc(Cl)ccc12 [MI-912]	> 10000 nM	< 5000 nM	< 5000 nM	> 5000 nM	< 5000 nM	–	–	–	–	–	–	< 3000 nM	–	–	–	–	–	–	–
CC(C)(C)C[C@H]1N[C@@H](C(=O)NC2CN(C(=O)NC3CCCCC3)C2)[C@H](c2cccc(Cl)c2F)[C@@]12C(=O)Nc1cc(Cl)ccc12 [MI-913]	8800 nM	< 5000 nM	< 5000 nM	4900 nM	< 5000 nM	–	–	–	–	–	–	< 3000 nM	–	–	–	–	–	–	–
CC(=O)OC(C)(C)C(=O)N1CC(NC(=O)[C@@H]2N[C@H](CC(C)(C)C)[C@]3(C(=O)Nc4cc(Cl)ccc43)[C@H]2c2cccc(Cl)c2F)C1 [MI-914]	> 10000 nM	< 3000 nM	< 3000 nM	> 5000 nM	< 3000 nM	–	–	–	–	–	–	< 1000 nM	–	–	–	–	–	–	–
CC(=O)N1CC(NC(=O)[C@@H]2N[C@H](CC(C)(C)C)[C@]3(C(=O)Nc4cc(Cl)ccc43)[C@H]2c2cccc(Cl)c2F)C1 [MI-915]	> 30000 nM	< 10000 nM	< 10000 nM	> 30000 nM	< 10000 nM	–	–	–	–	–	–	< 3000 nM	–	–	–	–	–	–	–
CCCCNC(=O)N1CC(NC(=O)[C@@H]2N[C@H](CC(C)(C)C)[C@]3(C(=O)Nc4cc(Cl)ccc43)[C@H]2c2cccc(Cl)c2F)C1 [MI-916]	> 5000 nM	< 3000 nM	< 3000 nM	> 5000 nM	< 5000 nM	–	–	–	–	–	–	< 100 nM	–	–	–	–	–	–	–
CCN(CC)C(=O)N1CC(NC(=O)[C@@H]2N[C@H](CC(C)(C)C)[C@]3(C(=O)Nc4cc(Cl)ccc43)[C@H]2c2cccc(Cl)c2F)C1 [MI-917]	> 10000 nM	< 3000 nM	< 3000 nM	> 5000 nM	–	–	–	–	–	–	–	< 1000 nM	–	–	–	–	–	–	–
